{"source": "patent US8986687B2", "about": "“Compounds inhibiting CD95 signaling for the treatment of pancreatic cancer” (Deutsches Krebsforschungszentrum, priority 2009, dated 2015)", "system": "ERK pathway / phosphorylation of ERK", "test": "Western blotting of ERK phosphorylation in pancreatic cells", "type": "cell-based", "settings": "PANC1 and Colo357 cells", "description": "Phosphorylation of AKT and ERK is shown in PanD3, PANC1 and Colo357 cells upon treatment with different concentrations of CD95L-T4 at the indicated time points. P: phosphorylated; T: total.\nA) Effect of the PI3K and MEK inhibitors (LY2940092 and PD98059 respectively) on CD95-induced phosphorylation of AKT and ERK is shown in PANC1 and Colo357. Inhibition of PI3K enhances ERK phosphorylation. P: phosphorylated; T: total.\nIt has been known that low concentrations of CD95L are sufficient to efficiently stimulate the non-apoptotic pathways downstream of CD95, being those pathways inhibited by higher concentrations. […]\nKnockdown experiments were performed by transient transfection with Lipofectamine 2000™ (Invitrogen Life Technologies) following the instruction manual. […] After transient transfection with the different siRNAs cells were cultured for 72 h before treated with CD95LT4 (20 ng/ml), migration was analyzed 36 h after treatment with a two dimensional migration assay. Knockdown efficiency was controlled by quantitative real-time PCR.\nProteins were transferred from polyacrylamide gels to nitrocellulose membranes by electroblotting. […] The HRP signal was detected by incubation with ECL solution and consecutive exposure to Amersham Hyperfim X-ray films Protein extraction and immunoblotting was performed as previously described. […]", "data": [{"smiles": "O=c1cc(N2CCOCC2)oc2c(-c3ccccc3)cccc12", "note": "[LY2940092]", "values": [{"measurement": "effect of PI3K inhibition on CD95-induced ERK phosphorylation", "result": "enhances"}]}]}
